Each compound was assayed against T1, MgCA (Malassezia globosa, UniProt A8Q1N3) (assay: stopped-flow CO2 hydration assay, Cheng-Prusoff).
T1 construct: gene MGL_1814; recombinant, purified; dimer in the homology model; Zn ligands C47, H103, C106
T1 sequence (A8Q1N3 1-241): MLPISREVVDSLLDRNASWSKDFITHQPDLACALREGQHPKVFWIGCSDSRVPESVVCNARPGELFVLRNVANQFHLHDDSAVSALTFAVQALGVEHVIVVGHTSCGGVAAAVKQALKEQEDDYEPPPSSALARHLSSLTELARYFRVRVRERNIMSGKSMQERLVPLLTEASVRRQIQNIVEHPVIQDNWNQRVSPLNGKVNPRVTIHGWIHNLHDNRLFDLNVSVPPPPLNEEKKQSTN
Format: biochemical
`CCCN(CCC)C(=O)S` [compound 4, 4] gave a Ki of 1.85 µM.
`CCCCN(CCCC)C(=O)S` [compound 5, 5] was tested, and the Ki was 7.52 µM.
In the case of `CC(C)CN(CC(C)C)C(=O)S` [compound 6, 6], the Ki is reported as 8.61 µM.
Work on `CCCCN(CC)C(=O)S` [compound 7, 7] yielded a Ki of 5.26 µM.
Compound `CN(Cc1ccccc1)C(=O)S` [compound 9, 9] has a Ki of 7.61 µM.
`O=C(S)N1CCOCC1` [compound 10, 10] showed a Ki of 7.65 µM.
Work on `O=C(S)N1CCNCC1` [compound 11, 11] yielded a Ki of 7.41 µM.
With `O=C(S)N1CCN(c2ccc(F)cc2)CC1` [compound 12, 12] the Ki was 8.33 µM.
`O=C(S)N1CCN(c2ccc(C(F)(F)F)cc2)CC1` [compound 13, 13] was tested, and the Ki was 4.22 µM.
`O=C(S)N1CCN(c2cccc(Cl)c2)CC1` [compound 14, 14] gave a Ki of 15.9 µM.
Work on `O=C(CN1CCN(C(=O)S)CC1)NC1CCCCC1` [compound 15, 15] yielded a Ki of 6.13 µM.
Work on `S=C(S)SCc1ccccc1` [compound 16, 16] yielded a Ki of 8.12 µM.
In the case of `S=C(S)OCCc1ccccc1` [compound 17, 17], the Ki is reported as 16.2 µM.

From paper PMC6010091, “Inhibition of the β-carbonic anhydrase from the dandruff-producing fungus Malassezia globosa with monothiocarbamates” (Journal of Enzyme Inhibition and Medicinal Chemistry, 2017)
